# Calls of active or inactive are those of the source. The calls are words filed in the database; no cut-off is given here.
# How the values were obtained:
# Mucor circinelloides [1] = assay: Antifungal activity against Mucor circinelloides R7B wild type strain assessed as reduction in spore germination at 100 ug/ml relative to control; assay type: functional; parameters: scale not given: the % may be the effect or the level left; settings: dose 100 µg/ml
# Mucor circinelloides [2] = assay: Antifungal activity against Mucor circinelloides M5 strain assessed as reduction in spore germination at 100 ug/ml relative to control; assay type: functional; parameters: scale not given: the % may be the effect or the level left; settings: dose 100 µg/ml
# Mucor circinelloides [3] = assay: Antifungal activity against Mucor circinelloides R7B wild type strain assessed as reduction in spore germination at 25 ug/ml relative to control; assay type: functional; parameters: scale not given: the % may be the effect or the level left; settings: dose 25 µg/ml
# Mucor circinelloides [4] = assay: Antifungal activity against Mucor circinelloides M5 strain assessed as reduction in spore germination at 25 ug/ml relative to control; assay type: functional; parameters: scale not given: the % may be the effect or the level left; settings: dose 25 µg/ml
# Mucor circinelloides [5] = assay: Antifungal activity against Mucor circinelloides R7B wild type strain assessed as reduction in spore germination at 50 ug/ml relative to control; assay type: functional; parameters: scale not given: the % may be the effect or the level left; settings: dose 50 µg/ml
# Mucor circinelloides [6] = assay: Antifungal activity against Mucor circinelloides M5 strain assessed as reduction in spore germination at 50 ug/ml relative to control; assay type: functional; parameters: scale not given: the % may be the effect or the level left; settings: dose 50 µg/ml
# Mucor circinelloides [7] = assay: Antifungal activity against Mucor circinelloides R7B wild type strain assessed as reduction in spore germination at 150 ug/ml relative to control; assay type: functional; parameters: scale not given: the % may be the effect or the level left; settings: dose 150 µg/ml
# Mucor circinelloides [8] = assay: Antifungal activity against Mucor circinelloides M5 strain assessed as reduction in spore germination at 150 ug/ml relative to control; assay type: functional; parameters: scale not given: the % may be the effect or the level left; settings: dose 150 µg/ml
# Microsporum canis [9] = assay: Antifungal activity against Microsporum canis clinical isolate 1 assessed as reduction in fungal growth by broth dilution method; assay type: functional
# Microsporum canis [10] = assay: Antifungal activity against Microsporum canis clinical isolate 2 assessed as reduction in fungal growth by broth dilution method; assay type: functional
# Microsporum canis [11] = assay: Antifungal activity against Microsporum canis clinical isolate 3 assessed as reduction in fungal growth by broth dilution method; assay type: functional
# Nannizzia gypsea [12] = assay: Antifungal activity against Microsporum gypseum clinical isolate 1 assessed as reduction in fungal growth by broth dilution method; assay type: functional
# Nannizzia gypsea [13] = assay: Antifungal activity against Microsporum gypseum clinical isolate 2 assessed as reduction in fungal growth by broth dilution method; assay type: functional
# Mucor circinelloides [14] = assay: Antifungal activity against Mucor circinelloides M5 strain assessed as reduction in fungal growth by broth dilution method; assay type: functional
# [15] = tested on: Trichophyton mentagrophytes; assay: Antifungal activity against Trichophyton mentagrophytes clinical isolate 1 assessed as reduction in fungal growth by broth dilution method; assay type: functional
# [16] = tested on: Trichophyton mentagrophytes; assay: Antifungal activity against Trichophyton mentagrophytes clinical isolate 2 assessed as reduction in fungal growth by broth dilution method; assay type: functional
# [17] = tested on: Trichophyton mentagrophytes; assay: Antifungal activity against Trichophyton mentagrophytes clinical isolate 3 assessed as reduction in fungal growth by broth dilution method; assay type: functional
# Trichophyton rubrum [18] = assay: Antifungal activity against Trichophyton rubrum clinical isolate 1 assessed as reduction in fungal growth by broth dilution method; assay type: functional
# Trichophyton rubrum [19] = assay: Antifungal activity against Trichophyton rubrum clinical isolate 2 assessed as reduction in fungal growth by broth dilution method; assay type: functional
# Epidermophyton floccosum = assay: Antifungal activity against Epidermophyton floccosum clinical isolate 1 assessed as reduction in fungal growth by broth dilution method; assay type: functional
# Aspergillus nidulans [20] = assay: Antifungal activity against Aspergillus nidulans clinical isolate 1 assessed as reduction in fungal growth by broth dilution method; assay type: functional
# Aspergillus nidulans [21] = assay: Antifungal activity against Aspergillus nidulans clinical isolate 2 assessed as reduction in fungal growth by broth dilution method; assay type: functional
# Aspergillus niger = assay: Antifungal activity against Aspergillus niger clinical isolate 1 assessed as reduction in fungal growth by broth dilution method; assay type: functional
# Mucor circinelloides [22] = assay: Antifungal activity against Mucor circinelloides R7B wild type strain assessed as reduction in fungal growth by broth dilution method; assay type: functional
# [23] = Cytotoxicity against mouse NIH/3T3 cells assessed as reduction in cell viability at 25 ug/ml incubated for 48 hrs by MTT assay (reference value: 93.8 +/- 4.9 %); assay type: toxicity, cell-based, NIH3T3; settings: at 25 µg/mL, read-out: Activity
# [24] = Cytotoxicity against mouse NIH/3T3 cells assessed as reduction in cell viability at 50 ug/ml incubated for 48 hrs by MTT assay (reference value: 93.8 +/- 4.9 %); assay type: toxicity, cell-based, NIH3T3; settings: at 50 µg/mL, read-out: Activity
# [25] = Cytotoxicity against mouse NIH/3T3 cells assessed as reduction in cell viability at 100 ug/ml incubated for 48 hrs by MTT assay (reference value: 93.8 +/- 4.9 %); assay type: toxicity, cell-based, NIH3T3; settings: at 100 µg/mL, read-out: Activity
# [26] = Cytotoxicity against mouse NIH/3T3 cells assessed as reduction in cell viability at 150 ug/ml incubated for 48 hrs by MTT assay (reference value: 93.8 +/- 4.9 %); assay type: toxicity, cell-based, NIH3T3; settings: at 150 µg/mL, read-out: Activity
# [27] = Cytotoxicity against mouse NIH/3T3 cells assessed as reduction in cell viability at 200 ug/ml incubated for 48 hrs by MTT assay (reference value: 93.8 +/- 4.9 %); assay type: toxicity, cell-based, NIH3T3; settings: at 200 µg/mL, read-out: Activity
# [28] = target: T1, Lanosterol 14-alpha demethylase (Mus musculus, UniProt Q8K0C4); assay: Inhibition of CYP51 in mouse NIH/3T3 cells assessed as specific enzymatic activity at 25 ug/ml incubated for 48 hrs by ELISA analysis; assay type: ADME, cell-based; settings: nih/3t3, 48 h, dose 25 µg/ml
# T1 sequence (Q8K0C4 whole entry): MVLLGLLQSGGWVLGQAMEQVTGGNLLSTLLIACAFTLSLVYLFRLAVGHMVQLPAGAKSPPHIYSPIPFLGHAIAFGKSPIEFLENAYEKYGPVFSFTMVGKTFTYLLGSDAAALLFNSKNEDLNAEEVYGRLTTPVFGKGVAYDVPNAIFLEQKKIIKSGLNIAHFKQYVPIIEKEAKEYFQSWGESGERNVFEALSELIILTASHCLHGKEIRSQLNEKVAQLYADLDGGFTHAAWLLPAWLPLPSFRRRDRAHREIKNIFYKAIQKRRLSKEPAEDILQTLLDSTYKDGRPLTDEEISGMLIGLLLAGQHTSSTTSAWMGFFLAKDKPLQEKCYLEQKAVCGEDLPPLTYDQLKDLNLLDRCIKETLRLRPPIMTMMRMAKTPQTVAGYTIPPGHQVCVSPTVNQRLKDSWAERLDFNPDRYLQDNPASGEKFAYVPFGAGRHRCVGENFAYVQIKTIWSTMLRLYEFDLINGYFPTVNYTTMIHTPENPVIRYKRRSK
# [29] = target: T1, Lanosterol 14-alpha demethylase; assay: Inhibition of CYP51 in mouse NIH/3T3 cells assessed as specific enzymatic activity at 50 ug/ml incubated for 48 hrs by ELISA analysis; assay type: ADME, cell-based; settings: nih/3t3, 48 h, dose 50 µg/ml
# [30] = target: T1, Lanosterol 14-alpha demethylase; assay: Inhibition of CYP51 in mouse NIH/3T3 cells assessed as specific enzymatic activity at 100 ug/ml incubated for 48 hrs by ELISA analysis; assay type: ADME, cell-based; settings: nih/3t3, 48 h, dose 100 µg/ml
# [31] = target: T1, Lanosterol 14-alpha demethylase; assay: Inhibition of CYP51 in mouse NIH/3T3 cells assessed as specific enzymatic activity at 150 ug/ml incubated for 48 hrs by ELISA analysis; assay type: ADME, cell-based; settings: nih/3t3, 48 h, dose 150 µg/ml
# [32] = target: T1, Lanosterol 14-alpha demethylase; assay: Inhibition of CYP51 in mouse NIH/3T3 cells assessed as specific enzymatic activity at 200 ug/ml incubated for 48 hrs by ELISA analysis; assay type: ADME, cell-based; settings: nih/3t3, 48 h, dose 200 µg/ml
# Mucor circinelloides [33] = assay: Antifungal activity against Mucor circinelloides R7B wild type strain assessed as few mycelia with several spores at 50 ug/ml by microscopic analysis; assay type: functional, organism-based; settings: dose 50.0 µg/ml
# Mucor circinelloides [34] = assay: Antifungal activity against Mucor circinelloides M5 strain assessed as few mycelia with several spores at 50 ug/ml by microscopic analysis; assay type: functional, organism-based; settings: dose 50.0 µg/ml
# Mucor circinelloides [35] = assay: Antifungal activity against Mucor circinelloides R7B wild type strain assessed as non-germinated spores and undifferentiated hyphae at 50 ug/ml by microscopic analysis; assay type: functional, organism-based; settings: dose 50.0 µg/ml
# Mucor circinelloides [36] = assay: Antifungal activity against Mucor circinelloides M5 strain assessed as non-germinated spores and undifferentiated hyphae at 50 ug/ml by microscopic analysis; assay type: functional, organism-based; settings: dose 50.0 µg/ml
# Mucor circinelloides [37] = assay: Antifungal activity against Mucor circinelloides R7B wild type strain assessed as complete absence of mycelia at 100 to 150 ug/ml by microscopic analysis; assay type: functional, organism-based; settings: dose 100-150 µg/ml
# Mucor circinelloides [38] = assay: Antifungal activity against Mucor circinelloides M5 strain assessed as complete absence of mycelia at 100 to 150 ug/ml by microscopic analysis; assay type: functional, organism-based; settings: dose 100-150 µg/ml
# Mucor circinelloides [39] = assay: Antifungal activity against Mucor circinelloides R7B wild type strain assessed as non-germinated spores at 100 to 150 ug/ml by microscopic analysis; assay type: functional, organism-based; settings: dose 100-150 µg/ml
# Mucor circinelloides [40] = assay: Antifungal activity against Mucor circinelloides M5 strain assessed as non-germinated spores at 100 to 150 ug/ml by microscopic analysis; assay type: functional, organism-based; settings: dose 100-150 µg/ml
smiles,measurement,setting,value
Fc1cc(F)cc(-c2cc(Oc3ccccc3)c3ccccc3n2)c1,Activity,Mucor circinelloides [1],6.7%
same,Activity,Mucor circinelloides [2],4.5%
same,Activity,Mucor circinelloides [3],78.5%
same,Activity,Mucor circinelloides [4],74.2%
same,Activity,Mucor circinelloides [5],34.7%
same,Activity,Mucor circinelloides [6],38.5%
same,Activity,Mucor circinelloides [7],1.7%
same,Activity,Mucor circinelloides [8],2.5%
same,MIC,Microsporum canis [9],100 µg/mL
same,MIC,Microsporum canis [10],100 µg/mL
same,MIC,Microsporum canis [11],100 µg/mL
same,MIC,Nannizzia gypsea [12],100 µg/mL
same,MIC,Nannizzia gypsea [13],100 µg/mL
same,MIC,Mucor circinelloides [14],100 µg/mL
same,MIC,[15],125 µg/mL
same,MIC,[16],125 µg/mL
same,MIC,[17],125 µg/mL
same,MIC,Trichophyton rubrum [18],125 µg/mL
same,MIC,Trichophyton rubrum [19],125 µg/mL
same,MIC,Epidermophyton floccosum,125 µg/mL
same,MIC,Aspergillus nidulans [20],150 µg/mL
same,MIC,Aspergillus nidulans [21],150 µg/mL
same,MIC,Aspergillus niger,150 µg/mL
same,MIC,Mucor circinelloides [22],150 µg/mL
same,"viability at 48 h, 25 ug/ml",[23],90.7%
same,"viability at 48 h, 50 ug/ml",[24],53.3%
same,"viability at 48 h, 100 ug/ml",[25],20.4%
same,"viability at 48 h, 150 ug/ml",[26],15%
same,"viability at 48 h, 200 ug/ml",[27],12.6%
same,Activity,[28],17.96 U/mg
same,Activity,[29],13.12 U/mg
same,Activity,[30],6.76 U/mg
same,Activity,[31],3.28 U/mg
same,Activity,[32],1.18 U/mg
same,Activity,Mucor circinelloides [33],Active
same,Activity,Mucor circinelloides [34],Active
same,Activity,Mucor circinelloides [35],Active
same,Activity,Mucor circinelloides [36],Active
same,Activity,Mucor circinelloides [37],Active
same,Activity,Mucor circinelloides [38],Active
same,Activity,Mucor circinelloides [39],Active
same,Activity,Mucor circinelloides [40],Active

# From ChEMBL document CHEMBL5143615, “Novel 2-aryl-4-aryloxyquinoline-based fungistatics for Mucor circinelloides. Biological evaluation of activity, QSAR and docking study” (Bioorg Med Chem Lett, 2022)
